Measurements from patent publication US20230355617A1, “SMALL MOLECULE INHIBITORS OF LEMUR TYROSINE KINASE 3” (The University of Sussex, priority 2020, published 2023).
pIC50: −log10 of the molar value. Where two headings read alike, the source gives them in different places. Where a SMILES comes first, the peptide text is derived from it. The star is where a group is joined. Cbz = O=C(OCc1ccccc1)*

Assays:
FDCP1-parental = experiment: FDCP1 cell-based model, parental cells; set-up: species or system murine
LMTK3 [1] = target: T1, LMTK3 (Homo sapiens, UniProt Q96Q04); experiment: 32P γ-ATP in vitro kinase assay, phosphorylation of HSP27 by LMTK3; format: biochemical; conditions: in vitro kinase assay; read-out: Approximate IC50
T1 construct: The wt kinase domain of LMTK3 (aa 134 to aa 444) was cloned into pOPINEneo; made in house; host or cells: Spodoptera frugiperda Sf9 (baculovirus)
T1 sequence (Q96Q04 105-415): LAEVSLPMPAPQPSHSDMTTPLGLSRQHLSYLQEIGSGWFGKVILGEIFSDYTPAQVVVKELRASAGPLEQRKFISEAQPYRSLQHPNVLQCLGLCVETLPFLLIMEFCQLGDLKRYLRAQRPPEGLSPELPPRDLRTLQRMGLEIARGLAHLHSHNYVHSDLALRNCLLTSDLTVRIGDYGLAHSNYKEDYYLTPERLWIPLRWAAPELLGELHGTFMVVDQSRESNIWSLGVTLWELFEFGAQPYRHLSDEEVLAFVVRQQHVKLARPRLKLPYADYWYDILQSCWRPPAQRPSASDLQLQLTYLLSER

LMTK3 [2] = target: T2, LMTK3 (Homo sapiens, UniProt Q96Q04); experiment: Western blotting of LMTK3 protein in BC cell lines; format: cell-based
T2 construct: endogenous in cells; host or cells: MCF7, T47D, MDA-MB-231
T2 sequence (Q96Q04 21-1460): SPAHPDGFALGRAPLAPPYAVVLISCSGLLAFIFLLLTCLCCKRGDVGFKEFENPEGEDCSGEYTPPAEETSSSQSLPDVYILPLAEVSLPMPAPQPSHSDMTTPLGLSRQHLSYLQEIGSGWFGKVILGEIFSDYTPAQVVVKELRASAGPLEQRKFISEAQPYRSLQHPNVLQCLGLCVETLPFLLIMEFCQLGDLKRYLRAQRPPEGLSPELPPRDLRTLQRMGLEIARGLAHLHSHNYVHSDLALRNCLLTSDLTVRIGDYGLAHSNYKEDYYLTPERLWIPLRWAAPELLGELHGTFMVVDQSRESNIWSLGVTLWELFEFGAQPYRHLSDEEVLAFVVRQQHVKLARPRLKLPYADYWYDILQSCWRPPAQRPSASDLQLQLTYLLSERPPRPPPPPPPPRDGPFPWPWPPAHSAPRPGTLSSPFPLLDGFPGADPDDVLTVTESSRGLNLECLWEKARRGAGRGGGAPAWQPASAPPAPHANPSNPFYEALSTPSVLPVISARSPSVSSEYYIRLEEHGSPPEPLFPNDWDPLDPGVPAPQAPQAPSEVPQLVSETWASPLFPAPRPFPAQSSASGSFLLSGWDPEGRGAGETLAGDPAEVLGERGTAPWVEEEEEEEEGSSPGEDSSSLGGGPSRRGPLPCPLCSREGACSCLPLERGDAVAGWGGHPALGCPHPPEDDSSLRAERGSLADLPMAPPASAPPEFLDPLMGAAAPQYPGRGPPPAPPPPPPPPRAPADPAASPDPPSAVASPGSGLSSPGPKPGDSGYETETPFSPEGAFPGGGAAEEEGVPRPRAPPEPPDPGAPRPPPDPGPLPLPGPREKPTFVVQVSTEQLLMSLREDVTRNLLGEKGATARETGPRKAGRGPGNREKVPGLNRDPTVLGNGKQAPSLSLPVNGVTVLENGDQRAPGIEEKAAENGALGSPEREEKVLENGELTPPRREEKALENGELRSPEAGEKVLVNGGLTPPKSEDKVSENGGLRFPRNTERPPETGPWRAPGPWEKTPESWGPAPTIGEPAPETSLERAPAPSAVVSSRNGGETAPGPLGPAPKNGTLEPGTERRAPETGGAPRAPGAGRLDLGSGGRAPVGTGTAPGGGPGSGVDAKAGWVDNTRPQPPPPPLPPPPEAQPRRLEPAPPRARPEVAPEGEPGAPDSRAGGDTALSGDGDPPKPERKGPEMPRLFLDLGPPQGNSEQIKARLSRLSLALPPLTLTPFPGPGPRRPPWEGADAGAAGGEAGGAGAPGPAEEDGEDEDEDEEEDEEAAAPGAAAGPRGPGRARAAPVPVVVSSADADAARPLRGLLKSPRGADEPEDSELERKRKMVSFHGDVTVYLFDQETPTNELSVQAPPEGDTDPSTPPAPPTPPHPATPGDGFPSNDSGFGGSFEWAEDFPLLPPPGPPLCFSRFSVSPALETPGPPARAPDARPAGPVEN

[3] = Pharmacokinetics after single IV, IP or PO dose; format: in vivo, mice
ERα = experiment: Western blotting of ERα protein in BC cell lines; format: cell-based, human; conditions: MCF7, T47D, MDA-MB-231

SMILES: FC(F)(F)Oc1cccc(-c2cnc3ccc(Cl)nn23)c1
- pIC50 (FDCP1-parental; Mus musculus, FDC-P1, read-out: FDCP1-parental IC50): < 5.00

SMILES: FC(F)(F)Oc1cccc(-c2cnc3ccc(-c4ccccn4)nn23)c1 [Compound 337-1]
- pIC50 (LMTK3 [1]): 6.40

SMILES: Cc1ccc(-c2ccc3ncc(-c4cccc(OC(F)(F)F)c4)n3n2)cc1
- pIC50 (FDCP1-parental; Mus musculus, FDC-P1; read-out: FDCP1-parental IC50): < 5.00

SMILES: FC(F)(F)Oc1cccc(-c2cnc3ccc(-c4ccncc4)nn23)c1 [Compound C28, 6-(Pyridin-4-yl)-3-(3-(trifluoromethoxy)phenyl)imidazo[1,2-b]pyridazine]
- inhibition of LMTK3 protein levels in cancer cell lines (LMTK3 [2]; MCF7, T47D, MDA-MB-231): best inhibitor
- LMTK3 protein levels (LMTK3 [2]; MCF7, T47D, MDA-MB-231, increasing concentrations, different time points): time and dose-dependent degradation of LMTK3
- LMTK3 ubiquitination (LMTK3 [2]; MCF7, 10 μM, 24 h): increased LMTK3 ubiquitination
- Cmax ([3]; IP 10 mg/kg): 839 ng/mL
- T1/2 ([3]; IP 10 mg/kg): ~59 min
- Cmax ([3]; IV 1 mg/kg): 185 ng/mL
- T1/2 ([3]; IV 5 mg/kg): ~10 min
- lethality of IV dose ([3]; IV 5 mg/kg): lethal for some mice
- Cmax ([3]; IV 5 mg/kg, plasma): 1533 ng/mL
- time of peak concentration ([3]; IV 5 mg/kg, plasma): 5 min
- Cmax ([3]; PO): 632 ng/mL
- T1/2 ([3]; PO): ~62 min
- peroral bioavailability (F) ([3]; based on incomplete data from 5 mg/kg IV group): 54%
- ERα protein levels (ERα): decreased protein levels of ERα

SMILES: CC(C)C[C@@H](C=O)NC(=O)[C@H](CC(C)C)NC(=O)[C@H](CC(C)C)NC(=O)OCc1ccccc1 [MG132, reference compound] (Cbz-Leu-Leu-Leu-aldehyde)
- effect on C28-induced downregulation of LMTK3 (LMTK3 [2]; 10 μM MG132 4 h, then 10 μM C28 24 h): able to prevent C28-induced downregulation of LMTK3
